# Reference: US20080160088A1, “COMPOSITION CONTAINING HYDROXYAPATITE AND A CALCIUM SALT” (L'OREAL, priority 2006, published 2008)
# System: Episkin™ reconstructed epidermides
# Assay: Diffusion of radioactively labelled caffeine through Episkin reconstructed epidermides (barrier function)
# Format: cell-based
# Details: 200 μg/ml; for Reduction of the passage of caffeine after 2 hours of application (in %): relative to the control
# Description: Hydroxyapatite in the form of particles sold under the name Hydroxysomes™ by LSC and their combination with a calcium D-pantetheine sulfonate sold by SOGO Pharmaceutical were tested on an in vitro model to evaluate the overall effect of this combination on the barrier function of the skin.
# This test consists in applying the test active agents to Episkin™ reconstructed epidermides differentiated on D13, and then, after incubation for 5 days, in applying radioactively labelled caffeine and monitoring the diffusion of the labelled caffeine through the reconstructed epidermides.
# Vitamin C, which is known to improve the epidermal barrier function via stimulation of the synthesis of the epidermal lipids, is used as a reference molecule for this test (positive control). Water is used as a negative control.
# Differentiated (D13) Episkin™ epidermides were placed in 12-well plates containing 2 ml of differentiation medium and were precultured at 37° C. and 5% CO2 for 24 hours. After incubation, the epidermides were treated topically with 100 μl of each concentration of test product or of the reference product (vitamin C).
# Control epidermides were treated topically with 100 μl of water.
# The epidermides were then incubated at 37° C. and 5% CO2 for 5 days, with changing of the medium and new application of the active agents after 2 days.
# The treatments were performed in quintuplicate (n=5).
# Four epidermides were used for the passage of caffeine and one “control” epidermis was kept to perform histology at the end of the experiment.
# After treatment with the test active agents and the reference product (vitamin C), the epidermides were washed and the caffeine was applied to the surface of each epidermis at a rate of 100 μl containing 2 μCi/ml (0.04 mM) of radioactive caffeine and 0.35 mM of cold caffeine, which corresponds to about 500 000 cpm total.
# The % activity of caffeine after 2 hours of application was measured.
structure (smiles),measurement,setting,value
O=C1O[C@H]([C@@H](O)CO)C(O)=C1O [Vitamin C],activity at 200 µg/mL,"topical 5 days, caffeine after 2 hours of application, read-out: % activity relative to the control",59%
same,Reduction of the passage of caffeine after 2 hours of application (in %),,−41%
same,Reduction of the passage of caffeine after 2 hours of application (in %),listed as vitamin C,−41%
